Laboratory results taken from article PMC8797470, “Disruption of the pentraxin 3/CD44 interaction as an efficient therapy for triple‐negative breast cancers” (Clinical and Translational Medicine, 2022).
Blank lines part the entries; values can stand above or below the compound they belong to. Ends that are not written are not given here.

What was measured:
PTX3 = conditions: read-out: KD for PTX3 binding; cited from earlier work
Text: However, knockdown of CD44 enhanced both JNK and p38 activity, implying that blockade of the PTX3/CD44 interaction positively compensates for JNK and p38 activity.

CD44 [1] = target: T1, CD44 (Homo sapiens, UniProt P16070); assay: Surface plasmon resonance (BIAcore) of N-terminal CD44 on immobilised full-length PTX3; type: binding; conditions: mean ± standard deviation
Text: The BIAcore 3000 system (GE Healthcare Co. Ltd.) was used to determine the direct protein interaction between the full‐length PTX3 (#1826‐TS; R&D Systems) and the N‐terminal of CD44 (#CD44‐3961H; Creative Biomart). Full‐length PTX3 was immobilised onto a CM5 sensor chip (GE Healthcare Co. Ltd.); the immobilisation level was 4000–6000 response units using amine‐coupling chemistry. Briefly, a mixture of 1‐Ethyl‐3‐(3‐dimethylaminopropyl) carbodiimide hydrochloride (EDC) and N‐hydroxysuccinimide activated the surface of the chip, and then diluted full‐length PTX3 (10 μg/ml in acetate buffer pH 3) was injected into the flow cells for immobilisation. Finally, the remaining activated groups were blocked by ethanolamine. The binding parameters of the experiment were measured over a 1‐min association phase and then followed by a 2‐min dissociation phase at a fluid flow rate of 10 μl/min. Phosphate‐buffered saline (PBS, pH 7.2) was used as the analyte running buffer; 0.05% sodium dodecyl sulphate was used to regenerate the chip surface before the next analyte concentration was applied. The 1:1 Langmuir binding model (BIAevaluation 4.1; GE Healthcare Co. Ltd.) were performed to calculate its corresponding association and dissociation rate constants to determine the affinity.
Target sequence in this assay (P16070 32-120 limits assumed): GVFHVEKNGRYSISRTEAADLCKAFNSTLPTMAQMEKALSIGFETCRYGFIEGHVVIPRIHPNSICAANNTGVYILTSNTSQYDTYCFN

MDA-MB-231 cells [2] = assay: Sphere formation assay; type: cell-based, human; conditions: MDA-MB-231 cells treated with the recombinant protein
Protocol: Note that 5 × 10^3 MDA‐MB‐231 cells were seeded in ultralow attachment plates (Corning) per well. Then, cultured in conditional medium containing the treatment of TGF‐β1, PTX3, PTX3NA, RI37, GI40, IgG1κ, PTX3 Ab‐10 or PTX3 Ab‐49 and the DMEM/F12 (Gibco) added with B27 (Invitrogen), 10 ng/ml bFGF (Peprotech) and 20 ng/ml EGF (Abcam). Number of spheres was calculated by microscope after 2 weeks.

MDA-MB-231 cells [3] = assay: Transwell migration and Matrigel invasion assays; type: cell-based, human; conditions: treatment in lower well, 18 h
Text: (§1) In migration assay, MDA‐MB‐231 cells seeded in 8.0 μm pore polycarbonate membrane inserts (BD Biosciences) in 24‐well plates. In Matrigel invasion assay, inserts were pre‐coated with an appropriate amount of Matrigel first, and the same number of cells seeded on the Matrigel. After cells adhered on the inserts, serum‐free DMEM medium added in the upper wells. Serum‐free medium containing the treatments of TGF‐β1, PTX3, PTX3NA, PTX3/N, PTX3/C, RI37, GI40, AD9, GR9, IgG1κ, PTX3 Ab‐10 or PTX3 Ab‐49 were then mixed into the lower wells of the 24‐well plates. After incubating for 18 h, cells outside the insert were removed by wiping. The inside the inserts were then stained by 4′,6‐diamidino‐2‐phenylindol (DAPI). Fluorescence microscope was used for counting the total number of migrated cells with 200× magnification. Different from the experimental design for the MDA‐MB‐231 cells, the migrated 4T1‐Luc2 cells in the inside of the insert were detected by luciferase activity.

CD44 [4] = target: T1, CD44; assay: Ligand binding ELISA on immobilised CD44; design: purchased Sino Biological Inc. 12211-H08H; conditions: wells coated with 10 μg/ml CD44, 2 h, OD 450 nm; for binding to immobilised CD44: HRP-conjugated recombinant proteins; for CD44 binding activity of peptides: biotinylated peptides, modified peptides compared with parental peptides
Protocol: Plate wells (9018; Corning Costar) were coated with 10 μg/ml of CD44 (12211‐H08H; Sino Biological Inc.) in PBS (pH 7.2) and then blocking for 1 h with the blocking buffer including 3% milk in PBS. For the stability binding experiments, the PTX3‐devired biotinylated peptides were pre‐incubated in serum for 1, 2, 4 or 6 h. For the binding experiments, the horseradish peroxidase (HRP)‐conjugated recombinant PTX3, PTX3/N, PTX3/C and PTX3NA or PTX3‐devired biotinylated peptides AD9, GR9, P2rdAD9 and P12rdGR9 (32310; LEADGENE) was responded in the well for 2 h. For the peptide of competition experiments, the PTX3‐devired biotinylated peptides RI37 and GI40 were diluted at the indicated concentration in PBS. After 2 h, PBS washed three times and then incubated with 5 μg/ml HRP‐conjugated PTX3 in PBS for 1 h at room temperature (RT). For the antibody competition experiments, Ab‐10 and Ab‐49 were incubated with 5 μg/ml HRP‐conjugated PTX3 in PBS for 2 h at RT. After incubation, the mixtures was responded in the well for 1 h at RT and then PBS washed three times, tetramethyl benzidine (TMB) was used to detect the bound HRP conjugate. After 15 min, the peroxidase reaction was stopped by adding 0.1 M H2SO4. Next, ELISA plate reader was used to detect the optical densities at 450 nm.
Target sequence in this assay (P16070 21-220 limits assumed): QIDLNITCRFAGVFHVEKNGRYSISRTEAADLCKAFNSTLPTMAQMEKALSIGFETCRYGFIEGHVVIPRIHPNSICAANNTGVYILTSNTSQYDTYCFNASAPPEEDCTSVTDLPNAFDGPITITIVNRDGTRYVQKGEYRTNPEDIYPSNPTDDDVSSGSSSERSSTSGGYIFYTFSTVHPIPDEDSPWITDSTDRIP

[5] = tested on: RANKL, MMP2, NANOG and TWIST2 transcription in MDA-MB-231 cells; assay: Real-time quantitative PCR of PTX3-induced genes; type: cell-based, human; conditions: wortmannin 100 nM, BAY 11-7085 2 μM, PD98059 10 μM; pre-treated 1 h, then PTX3 24 h
Text: TRIsure RNA extraction reagent (Invitrogen) extracted total RNA. SuperScript™ III Reverse Transcriptase (Invitrogen) was used to synthesis cDNA. Next, SensiFAST™ SYBR (BIOLINE) was applied to perform real‐time quantitative PCR (Q‐PCR) assay. CFX connect Real‐Time PCR System (BIO‐RAD) executed real‐time fluorescence monitoring and the melting curve analysis according to the manufacturer's recommendations. The following pairs of specific primers—human CEBPD (F): 5′‐[…]‐3′ and CEBPD (R): 5′‐[…]‐3′, human PTX3 (F): 5′‐ […]‐3′ and PTX3 (R): 5′‐ […]‐3′, human MMP2 (F): 5′‐ […]‐3′ and MMP2 (R): 5′‐ […]‐3′, human RANKL (F): 5′‐ AGAGC GCAGATGGATCCTAA‐3′ and RANKL (R): 5′‐ TTCCTTTTGCACAGC TCCTT‐3′, human TWIST2 (F): 5′‐[…]‐3′ and TWIST2 (R): 5′‐[…]‐3′, human NANOG (F): 5′‐[…]‐3′ and NANOG (R): 5′‐ […]‐3′, human GAPDH (F): 5′‐ […]‐3′ and GAPDH (R): 5′‐ […]‐3′.

4T1-Luc2 cells = assay: Transwell migration assay, luciferase read-out; type: cell-based, mouse; conditions: single peptide, with PTX3 treatment
Text: as §1

[6] = BIAcore 3000, full-length PTX3 amine-coupled to CM5 chip, N-terminal CD44 as analyte, PBS pH 7.2, 1:1 Langmuir model

Compound: TSG‐6: secretory protein, CEBPD‐responsive gene product that interacts with PTX3
Kd (PTX3): 314 to 648 nM

association rate constant, K on (CD44 [1]; [6]): 1.30 ± 0.32 × 10^2 M^–1 s^–1
dissociation rate constant, K off (CD44 [1]; [6]): 2.43 ± 2.35 × 10^–6 s^–1
Kd (CD44 [1]; N-terminal CD44 and full-length PTX3 binding, calculated from the rate constants, read-out: equilibrium dissociation constant, K D): 21 ± 12 nM
binding to immobilised CD44 (CD44 [4]): could bind
Compound: pentraxin 3 [PTX3]
sphere formation, protein alone (MDA-MB-231 cells [2]): promoted
migration and invasion, protein alone (MDA-MB-231 cells [3]): enhanced

Compound: COC[C@H]1OC(=O)c2coc3c2[C@@]1(C)C1=C(C3=O)[C@@H]2CCC(=O)[C@@]2(C)C[C@H]1OC(C)=O [wortmannin]
PTX3-induced RANKL, TWIST2, MMP2 and NANOG transcription with pathway inhibitors [5]: significantly hampered

CD44 binding activity of peptides (CD44 [4]): significantly high binding activity
Compound: AD9: peptide, PTX3 amino acids 209–217 (ACIWVKATD; also: biotin, position not given here)
PTX3-induced migration of 4T1-Luc2 cells (4T1-Luc2 cells): efficiently inhibited

Compound: COc1cccc(-c2cc(=O)c3ccccc3o2)c1N [PD98059]
PTX3-induced RANKL, TWIST2, MMP2 and NANOG transcription with pathway inhibitors [5]: significantly hampered

binding to immobilised CD44 (CD44 [4]): not
Compound: PTX3/N: recombinant truncated mutant, N‐terminus of PTX3, amino acids 19–182

Compound: CC(C)(C)c1ccc(S(=O)(=O)/C=C/C#N)cc1 [BAY 11‐7085]
PTX3-induced RANKL, TWIST2, MMP2 and NANOG transcription with pathway inhibitors [5]: significantly hampered

CD44 binding activity of peptides (CD44 [4]): significantly high binding activity
Compound: GR9: peptide, PTX3 amino acids 352–360 (GGAESCHIR; also: biotin, position not given here)
PTX3-induced migration of 4T1-Luc2 cells (4T1-Luc2 cells): efficiently inhibited
